Measurements as given in ChEMBL document CHEMBL1201862, “PubChem BioAssay data set” (2004).
Activity calls are given as the source filed them.

How the values were obtained:
[1] = target: Benomyl/methotrexate resistance protein (Candida albicans, UniProt P28873); assay: Candida albicans Mdr1 pump inhibition curves – singleplex, Cherry Pick1 hits, dose response (AID 588608); type: functional
[2] = target: T1, Rac GTPase-activating protein 1 (Homo sapiens, UniProt Q9H0H5); assay: blockers of MgcRacGAP-driven Rac1 GTP hydrolysis – biochemical, ADP Hunter fluorescence, primary and confirmatory, confirmation (AID 624330); type: functional
T1 sequence (Q9H0H5 whole entry): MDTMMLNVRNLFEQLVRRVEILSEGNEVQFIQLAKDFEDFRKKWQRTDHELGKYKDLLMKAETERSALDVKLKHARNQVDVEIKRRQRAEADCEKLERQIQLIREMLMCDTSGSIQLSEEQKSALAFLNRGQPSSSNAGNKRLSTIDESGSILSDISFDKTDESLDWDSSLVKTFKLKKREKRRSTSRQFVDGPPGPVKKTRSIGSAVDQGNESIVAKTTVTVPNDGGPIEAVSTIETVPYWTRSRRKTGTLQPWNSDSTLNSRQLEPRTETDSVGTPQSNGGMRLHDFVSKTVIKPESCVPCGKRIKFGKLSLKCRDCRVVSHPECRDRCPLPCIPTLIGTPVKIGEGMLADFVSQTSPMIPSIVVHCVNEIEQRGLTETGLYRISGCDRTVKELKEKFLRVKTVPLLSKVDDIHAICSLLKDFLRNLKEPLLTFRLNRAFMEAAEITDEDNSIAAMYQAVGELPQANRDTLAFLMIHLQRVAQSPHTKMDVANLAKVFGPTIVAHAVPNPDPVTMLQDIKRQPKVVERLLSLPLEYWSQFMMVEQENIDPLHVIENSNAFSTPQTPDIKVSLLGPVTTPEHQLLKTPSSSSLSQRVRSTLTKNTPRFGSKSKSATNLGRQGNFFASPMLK

[3] = target: T2, Endoribonuclease toxin MazF (Escherichia coli K-12, UniProt P0AE70); assay: substrate-only fluorescence increase artefacts – biochemical, single-stranded RNase substrate, counter-screen for MazEF activator project, dose response (AID 588502); type: functional
T2 sequence (P0AE70 whole entry): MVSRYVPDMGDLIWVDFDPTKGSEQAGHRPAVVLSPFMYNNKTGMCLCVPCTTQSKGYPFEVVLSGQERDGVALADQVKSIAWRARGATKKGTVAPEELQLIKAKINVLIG

[4] = target: T2, Endoribonuclease toxin MazF; assay: activation of MazEF endoribonuclease cleavage – biochemical, fluorescence, single-stranded RNA substrate, uHTS hits, dose response (AID 588481); type: functional
HEK293 [5] = assay: cells; details: Homo sapiens
HEK293 [6] = assay: cells; details: Homo sapiens; remark: listed apart in the source
[7] = target: Dual specificity protein phosphatase 3 (Homo sapiens, UniProt P51452); assay: VHR phosphatase inhibition, dose response, selectivity assay for STEP inhibitor project, biochemical (AID 602374); type: functional; details: read-out: IC50_Mean
Chain of Dual specificity protein phosphatase 3 (P51452 whole entry): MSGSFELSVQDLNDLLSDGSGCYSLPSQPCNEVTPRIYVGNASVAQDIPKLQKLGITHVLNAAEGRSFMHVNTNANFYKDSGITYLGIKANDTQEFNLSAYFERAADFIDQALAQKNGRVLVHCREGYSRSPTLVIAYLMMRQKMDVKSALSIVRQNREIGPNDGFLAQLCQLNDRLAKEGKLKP

[8] = target: Tyrosine-protein phosphatase non-receptor type 5 (Homo sapiens, UniProt P54829); assay: PTPN5 enzyme inhibition – biochemical, fluorescence intensity, uHTS hits, confirmation (AID 602372); type: functional; details: read-out: IC50_Mean
Chain of Tyrosine-protein phosphatase non-receptor type 5 (P54829 whole entry): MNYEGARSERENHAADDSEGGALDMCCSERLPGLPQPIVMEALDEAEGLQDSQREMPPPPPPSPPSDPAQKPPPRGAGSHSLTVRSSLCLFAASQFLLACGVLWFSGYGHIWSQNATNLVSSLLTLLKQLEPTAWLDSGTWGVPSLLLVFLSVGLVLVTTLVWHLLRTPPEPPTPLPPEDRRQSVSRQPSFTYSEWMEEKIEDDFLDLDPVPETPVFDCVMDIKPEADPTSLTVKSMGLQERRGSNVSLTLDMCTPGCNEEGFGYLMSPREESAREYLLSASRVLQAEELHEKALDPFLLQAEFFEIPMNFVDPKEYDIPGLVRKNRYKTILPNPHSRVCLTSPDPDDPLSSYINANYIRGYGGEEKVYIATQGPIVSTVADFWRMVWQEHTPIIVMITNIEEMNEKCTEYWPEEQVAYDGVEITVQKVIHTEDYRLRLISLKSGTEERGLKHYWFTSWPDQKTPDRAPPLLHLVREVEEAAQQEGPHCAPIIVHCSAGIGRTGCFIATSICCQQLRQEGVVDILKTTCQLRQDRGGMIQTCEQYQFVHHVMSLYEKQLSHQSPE

[9] = target: Tyrosine-protein phosphatase non-receptor type 11 (Homo sapiens, UniProt Q06124); assay: PTPN11 enzyme inhibitors – biochemical, selectivity assay for STEP inhibitor project, dose response (AID 602367); type: functional; details: read-out: IC50_Mean
Chain of Tyrosine-protein phosphatase non-receptor type 11 (Q06124 whole entry): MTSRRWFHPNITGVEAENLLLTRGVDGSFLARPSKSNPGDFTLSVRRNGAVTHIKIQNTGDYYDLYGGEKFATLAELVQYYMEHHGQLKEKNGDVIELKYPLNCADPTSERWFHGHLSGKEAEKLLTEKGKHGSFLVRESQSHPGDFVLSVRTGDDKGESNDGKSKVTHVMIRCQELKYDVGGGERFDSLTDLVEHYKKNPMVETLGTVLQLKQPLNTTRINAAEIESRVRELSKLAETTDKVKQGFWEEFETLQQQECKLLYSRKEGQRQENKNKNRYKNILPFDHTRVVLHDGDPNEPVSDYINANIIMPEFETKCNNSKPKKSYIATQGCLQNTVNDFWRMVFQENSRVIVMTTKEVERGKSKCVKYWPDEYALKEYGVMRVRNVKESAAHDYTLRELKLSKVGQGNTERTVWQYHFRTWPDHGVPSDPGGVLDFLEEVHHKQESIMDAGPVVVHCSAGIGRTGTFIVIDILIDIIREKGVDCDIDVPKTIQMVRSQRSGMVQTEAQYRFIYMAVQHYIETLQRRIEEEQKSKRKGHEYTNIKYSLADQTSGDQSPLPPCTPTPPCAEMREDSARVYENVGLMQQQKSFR

[10] = target: T3, Sentrin-specific protease 8 (Homo sapiens, UniProt Q96LD8); type: functional;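 also: luminescence read-out of SENP8 inhibition, dose-response confirmation following an ultra-high-throughput screen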
T3 sequence (Q96LD8 whole entry): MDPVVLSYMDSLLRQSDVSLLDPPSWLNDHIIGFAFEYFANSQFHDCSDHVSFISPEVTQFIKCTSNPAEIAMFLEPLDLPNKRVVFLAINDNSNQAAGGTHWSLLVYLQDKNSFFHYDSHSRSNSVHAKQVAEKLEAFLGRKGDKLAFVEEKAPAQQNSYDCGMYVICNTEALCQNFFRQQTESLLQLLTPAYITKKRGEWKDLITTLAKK

Caspase-3 = target: T4, Caspase-3 (Homo sapiens, UniProt P42574); type: functional;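 also: Dose-response selectivity test against caspase-3 for candidate inhibitors of sentrin-specific proteases (SENPs)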
T4 sequence (P42574 whole entry): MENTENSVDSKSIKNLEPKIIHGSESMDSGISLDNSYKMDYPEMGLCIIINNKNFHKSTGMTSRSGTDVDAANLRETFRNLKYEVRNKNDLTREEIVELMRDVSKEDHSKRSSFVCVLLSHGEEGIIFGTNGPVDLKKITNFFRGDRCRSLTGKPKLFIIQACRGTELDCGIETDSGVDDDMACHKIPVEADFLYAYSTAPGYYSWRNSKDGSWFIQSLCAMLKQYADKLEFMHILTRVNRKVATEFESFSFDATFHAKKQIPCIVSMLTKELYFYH

[11] = target: T5, Sentrin-specific protease 7 (Homo sapiens, UniProt Q9BQF6); type: functional;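 also: Luminescence-based dose-response confirmation of ultra-high-throughput screening hits, measuring inhibition of SENP7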
T5 sequence (Q9BQF6 whole entry): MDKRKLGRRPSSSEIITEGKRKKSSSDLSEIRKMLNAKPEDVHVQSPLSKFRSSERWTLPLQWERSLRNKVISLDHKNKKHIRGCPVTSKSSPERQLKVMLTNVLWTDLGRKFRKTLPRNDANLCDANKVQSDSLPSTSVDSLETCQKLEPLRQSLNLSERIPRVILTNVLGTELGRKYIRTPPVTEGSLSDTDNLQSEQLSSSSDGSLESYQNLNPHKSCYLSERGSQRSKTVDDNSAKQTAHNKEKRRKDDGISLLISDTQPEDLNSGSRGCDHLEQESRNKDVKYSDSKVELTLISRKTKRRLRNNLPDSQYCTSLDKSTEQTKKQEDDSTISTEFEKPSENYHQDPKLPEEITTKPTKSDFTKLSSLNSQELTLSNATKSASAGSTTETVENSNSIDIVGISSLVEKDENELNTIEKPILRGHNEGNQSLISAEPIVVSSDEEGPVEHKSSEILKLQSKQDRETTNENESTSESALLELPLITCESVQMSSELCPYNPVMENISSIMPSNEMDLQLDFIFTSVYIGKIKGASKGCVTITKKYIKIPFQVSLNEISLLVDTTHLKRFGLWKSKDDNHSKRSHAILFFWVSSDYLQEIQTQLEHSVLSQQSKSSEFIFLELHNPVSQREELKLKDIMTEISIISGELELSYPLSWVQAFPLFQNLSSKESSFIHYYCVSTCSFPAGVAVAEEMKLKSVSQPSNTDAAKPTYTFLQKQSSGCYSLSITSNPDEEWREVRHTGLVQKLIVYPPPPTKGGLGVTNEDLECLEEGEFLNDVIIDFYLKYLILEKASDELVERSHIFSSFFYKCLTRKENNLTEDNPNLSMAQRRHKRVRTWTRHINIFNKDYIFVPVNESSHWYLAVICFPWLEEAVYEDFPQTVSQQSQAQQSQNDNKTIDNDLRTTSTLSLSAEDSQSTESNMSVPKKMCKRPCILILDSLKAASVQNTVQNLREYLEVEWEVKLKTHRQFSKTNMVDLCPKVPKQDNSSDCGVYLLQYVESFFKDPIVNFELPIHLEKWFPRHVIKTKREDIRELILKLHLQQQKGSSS

[12] = target: T6, Sentrin-specific protease 6 (Homo sapiens, UniProt Q9GZR1); type: functional;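 also: Luminescence-based dose-response confirmatory assay of SENP6 inhibition, following up an ultra-high-throughput screen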
T6 sequence (Q9GZR1 whole entry): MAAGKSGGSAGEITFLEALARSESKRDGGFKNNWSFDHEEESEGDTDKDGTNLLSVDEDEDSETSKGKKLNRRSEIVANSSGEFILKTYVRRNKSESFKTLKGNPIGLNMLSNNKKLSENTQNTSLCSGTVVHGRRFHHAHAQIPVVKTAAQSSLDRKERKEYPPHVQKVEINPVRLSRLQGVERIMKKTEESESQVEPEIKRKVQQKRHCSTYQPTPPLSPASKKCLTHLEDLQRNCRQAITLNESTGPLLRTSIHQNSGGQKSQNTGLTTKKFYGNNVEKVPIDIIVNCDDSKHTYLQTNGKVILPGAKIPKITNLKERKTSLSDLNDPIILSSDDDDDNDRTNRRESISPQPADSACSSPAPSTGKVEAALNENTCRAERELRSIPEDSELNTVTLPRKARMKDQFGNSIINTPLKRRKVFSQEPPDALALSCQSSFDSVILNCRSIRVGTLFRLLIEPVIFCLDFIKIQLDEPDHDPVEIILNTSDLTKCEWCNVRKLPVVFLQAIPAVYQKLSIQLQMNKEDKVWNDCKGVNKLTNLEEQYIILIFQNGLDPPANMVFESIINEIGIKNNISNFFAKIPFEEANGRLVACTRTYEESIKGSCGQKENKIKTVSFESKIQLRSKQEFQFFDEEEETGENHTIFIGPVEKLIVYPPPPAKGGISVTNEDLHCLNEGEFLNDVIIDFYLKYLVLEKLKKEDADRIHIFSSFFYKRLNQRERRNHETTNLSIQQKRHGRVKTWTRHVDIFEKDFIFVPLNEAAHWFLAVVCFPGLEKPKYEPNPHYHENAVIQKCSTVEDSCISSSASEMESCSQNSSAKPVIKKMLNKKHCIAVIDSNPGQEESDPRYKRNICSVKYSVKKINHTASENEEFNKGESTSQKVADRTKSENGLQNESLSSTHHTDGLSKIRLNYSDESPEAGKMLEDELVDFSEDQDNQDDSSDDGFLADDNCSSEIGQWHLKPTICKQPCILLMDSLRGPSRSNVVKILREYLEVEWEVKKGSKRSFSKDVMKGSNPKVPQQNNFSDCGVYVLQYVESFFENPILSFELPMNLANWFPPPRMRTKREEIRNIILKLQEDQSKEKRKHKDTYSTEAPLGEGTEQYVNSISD

[13] = target: T7, Low molecular weight phosphotyrosine protein phosphatase (Homo sapiens, UniProt P24666); type: functional; details: read-out: IC50_Mean
T7 sequence (P24666 whole entry): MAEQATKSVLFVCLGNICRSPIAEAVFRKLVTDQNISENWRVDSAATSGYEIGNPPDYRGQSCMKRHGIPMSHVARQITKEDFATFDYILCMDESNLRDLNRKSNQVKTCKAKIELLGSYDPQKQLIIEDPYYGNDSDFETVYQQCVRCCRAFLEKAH

[14] = target: T7, Low molecular weight phosphotyrosine protein phosphatase; type: functional; details: read-out: IC50_Mean; remark: listed apart in the source
Vero = assay: viability loss in Vero cells – cell-based, plate reader, cherry-pick samples, cytotoxicity control, dose response (AID 687020); type: functional; details: Chlorocebus sabaeus
[15] = viability loss in HeLa cells – cytotoxicity control for MgcRacGAP inhibitor project, dose response (AID 624300); type: functional

Chain of Benomyl/methotrexate resistance protein (P28873 whole entry): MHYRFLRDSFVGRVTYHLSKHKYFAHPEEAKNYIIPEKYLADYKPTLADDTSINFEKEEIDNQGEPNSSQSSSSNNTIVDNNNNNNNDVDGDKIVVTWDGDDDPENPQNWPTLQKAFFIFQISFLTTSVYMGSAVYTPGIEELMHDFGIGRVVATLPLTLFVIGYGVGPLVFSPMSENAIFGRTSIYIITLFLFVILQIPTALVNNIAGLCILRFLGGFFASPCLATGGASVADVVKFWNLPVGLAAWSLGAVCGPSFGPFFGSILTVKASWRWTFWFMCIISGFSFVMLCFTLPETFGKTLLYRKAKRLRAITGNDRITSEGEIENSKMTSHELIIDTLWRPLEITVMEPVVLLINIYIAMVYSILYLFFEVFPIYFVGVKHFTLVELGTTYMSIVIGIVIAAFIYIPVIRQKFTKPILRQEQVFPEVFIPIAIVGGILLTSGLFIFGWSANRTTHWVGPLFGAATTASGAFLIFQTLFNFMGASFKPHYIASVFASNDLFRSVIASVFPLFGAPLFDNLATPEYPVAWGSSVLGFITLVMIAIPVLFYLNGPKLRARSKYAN

SMILES: COCCn1c(=S)[nH]c2sc3c(c2c1=O)CCCC3
- EC50 [1]: 0.012 µM (active)
- IC50 [2]: 38.7 µM (active)

SMILES: Cn1c(CNc2ccc(O)cc2)nc2ccccc21
- EC50 [3]: > 99 µM (inactive)
- EC50 [4]: > 99 µM (inactive)

SMILES: COc1ccc(/N=c2\oc3cc(O)ccc3cc2C(=O)NCC2CCCO2)c(OC)c1 (stereo unspecified)
- EC50 [3]: > 99 µM (inactive)
- EC50 [4]: > 99 µM (inactive)
- EC50 (HEK293 [5]): > 59.6 µM (inactive)
- EC50 (HEK293 [6]): > 59.6 µM (inactive)

SMILES: O=C(COc1ccc(/C=N/NC(=O)c2ccncc2)cc1)Nc1ccc([N+](=O)[O-])cc1
- IC50 [7]: 21.7 µM (inactive)
- IC50 [8]: > 80 µM (inactive)
- IC50 [9]: 6.08 µM (active)

SMILES: O=c1/c(=C\c2ccc3c(c2)OCO3)sc2n1CCCN=2
- IC50 [10]: 34.1 µM (active)
- IC50 (Caspase-3): 17 µM (active)
- IC50 [11]: 12.6 µM (active)
- IC50 [12]: 33.6 µM (active)

SMILES: O=C(CSc1nc(-c2ccccc2)nc2ccc(F)cc12)Nc1ccc(C(=O)O)cc1
- IC50 [13]: 57.3 µM (inactive)
- IC50 [14]: 25.9 µM (inactive)

SMILES: CN(CC(=O)Nc1cccc(F)c1)C(=O)c1ccccc1CCc1ccccc1
- AC50 (Vero): 15.3 µM (active)

SMILES: CC(=O)Nc1cccc(NC(=O)c2cccc(-c3ccc(O)cc3)c2)c1
- CC50 [15]: 100 µM (active)
- IC50 [2]: 46.4 µM (active)

SMILES: COc1c(Cl)cc(Br)c(OC)c1C(=O)NC(=O)Nc1nc(C)cc(C)n1
- AC50 (Vero): 29.2 µM (active)
